# Values of other authors, collected in patent US20230243813A1, “METHODS FOR SELECTING AND TREATING CANCER WITH FGFR3 INHIBITORS” (GENECENTRIC THERAPEUTICS, INC., priority 2020, published 2023).
# Where two headings read alike, the source gives them in different places.
# System: bladder cancer cell lines
# Details: GDSC1/GDSC2 IC50 data, RNA-seq and Affymetrix U219 expression, FAS-1 to FAS-4 scores
Structure (SMILES),sensitivity (IC50) of samples identified as altered by the FAS classifiers,sensitivity (IC50) of samples identified as altered by the FAS classifiers (listed as BIBF)
"COC(=O)c1ccc2c(c1)NC(=O)/C2=C(\Nc1ccc(N(C)C(=O)CN2CCN(C)CC2)cc1)c1ccccc1 [BIBF 1120, nintedanib]",high sensitivity,showed samples with sensitivity
"COc1cc2c(Oc3ccc(NC(=O)C4(C(=O)Nc5ccc(F)cc5)CC4)cc3F)ccnc2cc1OCCCN1CCOCC1 [foretinib, Foretinib]",showed samples with sensitivity,
